Assay results taken from patent publication US20200371122A1, “BIOMARKER FOR SENESCENT CELLS” (Buck Institute for Research on Aging, priority 2017, published 2020).

Experiments:
Format in all cases: in vivo, mouse
[1] = system: C57BL6/J and p16-3MR mice injured with bleomycin; assay: Bleomycin-induced pulmonary fibrosis in mice
Protocol: RNA was extracted from cells or tissues using commercially available kits (Isolate II—Bioline for cells; Direct-zol—Zymo for tissues) according to the manufacturer's instructions. cDNA synthesis was performed using a High Capacity cDNA Reverse Transcription Kit (Thermo Fisher) according to the manufacturer's instructions. Quantitative PCR was performed on a LightCycler 480 II (Roche) using primers and probes designed for the Universal Probe Library. Primers and probes used for human transcripts were ACTB: 5′-CCAACCGCGAGAAGATGA (SEQ ID NO:1), 5′-TCCATCACGATGCCAGTG (SEQ ID NO:2), Probe #64; TUBA: 5′-cttcgtctccgccatcag (SEQ ID NO:3), 5′-ttgccaatctggacacca (SEQ ID NO:4), Probe #58; ALOX5: 5′-[…] (SEQ ID NO:5), 5′-[…] (SEQ ID NO:6), Probe #64; ALOX5AP: 5′-ggtctgcggggctacttt (SEQ ID NO:7), 5′-[…] (SEQ ID NO:8), Probe #18; ALOX12: 5′-[…] (SEQ ID NO:9), 5′-agccaggtcgtcaggag (SEQ ID NO:10), Probe #32; ALOX15: 5′-[…] (SEQ ID NO:11), 5′-[…] (SEQ ID NO:12), Probe #76; ALOX15B: 5′-[…] (SEQ ID NO:13), 5′-actgggaggcgaagaagg (SEQ ID NO:14), Probe #51; AKR1C1: 5′-catgcctgtcctgggattt (SEQ ID NO:15), 5′-[…] (SEQ ID NO:16), Probe #49; AKR1C2: 5′-ctatgcgcctgcagaggt (SEQ ID NO:17), 5′-[…] (SEQ ID NO:18), Probe #31; AKR1C3: 5′-[…] (SEQ ID NO:19), 5′-[…] (SEQ ID NO:20), Probe #78; CYSLTR2: 5′-[…] (SEQ ID NO:21), 5′-[…] (SEQ ID NO:22), Probe #18; DPEP1: 5′-gacgtcctgaggctggtg (SEQ ID NO:23), 5′-[…] (SEQ ID NO:24), Probe #9 (SEQ ID NO:25), ELOVL2: 5′-[…] (SEQ ID NO:26), 5′-[…] (SEQ ID NO:27), Probe #53; ELOVL4: 5′-catttggcccatggattc (SEQ ID NO:28), 5′-[…] (SEQ ID NO:29), Probe #31; ELOVL5: 5′-cccttccatgcgtccata (SEQ ID NO:30), 5′-[…] (SEQ ID NO:31), Probe #31; EPHX2: 5′-ttctgctggacaccctgaa (SEQ ID NO:32), 5′-[…] (SEQ ID NO:33), Probe #45; GPX4: 5′-ttcccgtgtaaccagttcg (SEQ ID NO:34), 5′-[…] (SEQ ID NO:35), Probe #36; LTA4H: 5′-ctgctctcacggtccagtc (SEQ ID NO:36), 5′-[…] (SEQ ID NO:37), Probe #64; LTBR2: 5′-[…] (SEQ ID NO:38), 5′-[…] (SEQ ID NO:39), Probe #33; LTC4S: 5′-[…] (SEQ ID NO:40), 5′-[…] (SEQ ID NO:41), Probe #18; PTGDS: 5′-[…] (SEQ ID NO:42), 5′-[…] (SEQ ID NO:43), Probe #36; PTGES: 5′-agagatgcctgcccacag (SEQ ID NO:44), 5′-tggccaccacgtacatctt (SEQ ID NO:45), Probe #4; PTGES2: 5′-[…] (SEQ ID NO:46), 5′-[…] (SEQ ID NO:47), Probe #49; PTGES3 (SEQ ID NO:48), 5′-[…] (SEQ ID NO:49), 5′-[…] (SEQ ID NO:50), Probe #48; PTGIS: 5′-[…] (SEQ ID NO:51), 5′-[…] (SEQ ID NO:52), Probe #45; PTGR1: 5′-atgatggggcagcaagtg (SEQ ID NO:53), 5′-cccatcagaaatggagtgc (SEQ ID NO:54), Probe #64; PTGS1: 5′-[…] (SEQ ID NO:55), 5′-gtggtggtccatgttcctg (SEQ ID NO:56), Probe #81; PTGS2: 5′-gatccccagggctcaaac (SEQ ID NO:57), 5′-[…] (SEQ ID NO:58), Probe #61; TBXAS1: 5′-[…] (SEQ ID NO:59), 5′-tgcctcccgtgtgaatct (SEQ ID NO:60), Probe #73; AREG: 5′-[…] (SEQ ID NO:61), 5′-[…] (SEQ ID NO:62), Probe #73; CCL2: 5′-AGTCTCTGCCGCCCTTCT (SEQ ID NO:63), 5′-GTGACTGGGGCATTGATTG (SEQ ID NO:64), Probe #40; CCL27: 5′-[…] (SEQ ID NO:65), 5′-gctgggtggcagtaggaat (SEQ ID NO:66), Probe #18; CXCL1: 5′-[…] (SEQ ID NO:67), 5′-[…] (SEQ ID NO:68), Probe #52; HGF: 5′-[…] (SEQ ID NO:69), 5′-[…] (SEQ ID NO:70), Probe #49; ILIA: 5′-[…] (SEQ ID NO:71), 5′-[…] (SEQ ID NO:72), Probe #6; IL1B: 5′-[…] (SEQ ID NO:73), 5′-[…] (SEQ ID NO:74), Probe #78; IL6: 5′-[…] (SEQ ID NO:75), 5′-gaaggcagcaggcaacac (SEQ ID NO:76), Probe #45; IL8: 5′-[…] (SEQ ID NO:77), 5′-atggttccttccggtggt (SEQ ID NO:78), Probe #72; IL10: 5′-[…] (SEQ ID NO:79), 5′-[…] (SEQ ID NO:80), Probe #67; MMP3: 5′-[…] (SEQ ID NO:81), 5′-[…] (SEQ ID NO:82), Probe #36; PDGFA: 5′-[…] (SEQ ID NO:83), 5′-[…] […]

[2] = system: C57BL6/J and p16-3MR mice injured with bleomycin; assay: Bleomycin-induced pulmonary fibrosis in mice; remark: listed apart in the source
[3] = system: p16-positive cells; assay: Eicosanoid synthase gene expression in livers of doxorubicin-treated or aged p16-3MR mice; details: liver
Protocol: RNA was extracted from cells or tissues using commercially available kits (Isolate II—Bioline for cells; Direct-zol—Zymo for tissues) according to the manufacturer's instructions. cDNA synthesis was performed using a High Capacity cDNA Reverse Transcription Kit (Thermo Fisher) according to the manufacturer's instructions. Quantitative PCR was performed on a LightCycler 480 II (Roche) using primers and probes designed for the Universal Probe Library. Primers and probes used for human transcripts were ACTB: 5′-CCAACCGCGAGAAGATGA (SEQ ID NO:1), 5′-TCCATCACGATGCCAGTG (SEQ ID NO:2), Probe #64; TUBA: 5′-cttcgtctccgccatcag (SEQ ID NO:3), 5′-ttgccaatctggacacca (SEQ ID NO:4), Probe #58; ALOX5: 5′-[…] (SEQ ID NO:5), 5′-[…] (SEQ ID NO:6), Probe #64; ALOX5AP: 5′-ggtctgcggggctacttt (SEQ ID NO:7), 5′-[…] (SEQ ID NO:8), Probe #18; ALOX12: 5′-[…] (SEQ ID NO:9), 5′-agccaggtcgtcaggag (SEQ ID NO:10), Probe #32; ALOX15: 5′-[…] (SEQ ID NO:11), 5′-[…] (SEQ ID NO:12), Probe #76; ALOX15B: 5′-[…] (SEQ ID NO:13), 5′-actgggaggcgaagaagg (SEQ ID NO:14), Probe #51; AKR1C1: 5′-catgcctgtcctgggattt (SEQ ID NO:15), 5′-[…] (SEQ ID NO:16), Probe #49; AKR1C2: 5′-ctatgcgcctgcagaggt (SEQ ID NO:17), 5′-[…] (SEQ ID NO:18), Probe #31; AKR1C3: 5′-[…] (SEQ ID NO:19), 5′-[…] (SEQ ID NO:20), Probe #78; CYSLTR2: 5′-[…] (SEQ ID NO:21), 5′-[…] (SEQ ID NO:22), Probe #18; DPEP1: 5′-gacgtcctgaggctggtg (SEQ ID NO:23), 5′-[…] […]

[4] = bleomycin-treated animals, day 14, ELISA

Compound: Nc1nc(O)c2ncn(COC(CO)CO)c2n1 [GCV, ganciclovir]
- RNA levels of p16INK4a and p21WAF1 in lungs ([1]; 14 days after bleomycin injury): significantly attenuated
- collagen expression (Col3a1 and Col4a1) ([1]; bleomycin-injured mice, 21 days after injury as printed): reduced
- collagen content (hydroxyproline) ([2]; 21 days after injury): reduced
- cysteinyl leukotrienes in bronchioalveolar lavage fluid (BALF) [2, 4]: reduced
- prostaglandin E2 in bronchioalveolar lavage fluid (BALF) [2, 4]: reduced
- eicosanoid synthase expression ([3]; doxorubicin-treated p16-3MR mice, day 10): reduced
- eicosanoid synthase expression ([3]; p16-3MR mice aged 21 months): not statistically significant
